{
  "source": "patent US7700644B2",
  "about": "“Isoflavonoid dimers” (Novogen Research Pty Ltd, priority 2005, dated 2010)",
  "key": {"HT-29 (Colorectal) cells": {"test_system": "HT-29 (Colorectal) cells", "test": "Chemosensitisation, combination with antineoplastic agent, HT-29", "type": "cell-based, human", "details": "for synergy with Paclitaxel: Cpd. 2 1 μM and 2 μM", "experimental": "(§1) The utility of the dimeric compounds of the invention to act as a chemosensitiser when used in combination with an array of standard chemotherapeutic agents was assessed. Dimeric Cpd. 2 was applied to various colorectal and pancreatic cancer cell lines to investigate its synergy with standard chemotherapeutic agents including cisplatin, gemcitabine, paclitaxel, doxorubicin, camptothecin and topotecan.\n(§2) The experiment as outlined in SOP-BD011 (Versions A and B) was used to screen three antineoplastic agents against a given cell line in any ‘one’ experiment (see for example Kanzawa et al., (1997)). The inherent design of the experiment allowed for three sequences of Cpd. 2 and an antineoplastic agent. • 1) Direct Sequence—Cells are treated with both Cpd. 2 and a single antineoplastic agent (combined) for 5 days. • 2) Cpd. 2 First (Forward) Sequence—Cells are treated for 24 hours with Cpd. 2 before replacing with a 24 hour antineoplastic agent treatment; drugs are then washed out and processed on Day 5. • 3) Reverse Sequence—The reverse order to experiment No. 2 above. i.e. a cytotoxin first sequence Results and Conclusions\nAll data was evaluated using the formulae of theoretic additivity incorporated into a three dimensional model, as described by Kanzawa et al. (1997). This allows for simple data interpretation as values in excess of 10% are defined as ‘synergistic’ (depicted in grey) whilst those below −10% are defined as ‘antagonistic’ (depicted in black)."}, "HPAC (Pancreatic) cells": {"test_system": "HPAC (Pancreatic) cells", "test": "Chemosensitisation, combination with antineoplastic agent, HPAC", "type": "cell-based, human", "experimental": "as §1, §2\nAll data was evaluated using the formulae of theoretic additivity incorporated into a three dimensional model, as described by Kanzawa et al. (1997). […]"}, "[1]": {"test_system": "Neonatal foreskin fibroblasts (NFF)", "test": "Normal cell toxicity, MTT proliferation assay, NFF", "type": "cell-based, human", "experimental": "Neonatal foreskin fibroblasts (NFF) were a gift from Dr. Peter Parsons (Queensland Institute of Medical Research). RK-13 (rabbit kidney) cells were obtained from Miller Whalley (Macquarie University). Both cell types were cultured in RPMI supplemented with 10% FCS (CSL, Australia), penicillin (100 U/ml), streptomycin ([…]), L-glutamine (2 mM) and sodium bicarbonate (1.2 g/L), and cultured at 37° C. in a humidified atmosphere of 5% CO2.\n(§3) IC50 values were determined for each cell line. Cells were seeded in 96-well plates at an appropriate cell density as determined from growth kinetics analysis. NFFs were cultured for 5 days and RK-13s for 24 hrs in the absence and presence of the test compounds. Cell proliferation was assessed after the addition of 20 μl of 3-4,5 dimethylthiazol-2,5-diphenyl tetrazolium bromide (MTT, 2.5 mg/ml in PBS, Sigma) for 3-4 hrs at 37° C. according to manufacturer's instructions. IC50 values were calculated from semi-log plots of % of control proliferation on the y-axis against log dose on the x-axis.\nDuplicate cytotoxicity assays against NFF cells were conducted with dehydroequol (DHE), 4,9-dihydroxy-14,15-dimethoxy-12a-(3′,4′-dimethoxyphenyl)-3,10-dimethyl-2,11-dioxa-(1H,12H)-6b,6c,12a,16b-tetrahydronaphtho[1,2-g]chrysene (2) from Example 6.1 and cisplatin."}, "MM200 (Melanoma)": {"test_system": "MM200 (Melanoma)", "test": "In vitro cytotoxicity, MTT proliferation assay, MM200", "type": "cell-based, human", "details": "Homo sapiens", "experimental": "(§4) The human pancreatic cancer cell line, HPAC (CRL-2119) was routinely cultured in 1:1 mixture DMEM (Sigma) plus Ham's F12 (Sigma) medium containing HEPES (15 mM), insulin (0.002 mg/ml), transferrin (0.005 mg/ml), hydrocortisone, (40 ng/ml), epidermal growth factor (10 ng/ml). The ovarian cancer cell line CP70 was obtained as a gift from Dr. Gil Mor (Yale University) and cultured in a 1:1 mixture DMEM plus Ham's F12 medium, and SKOV-3 was purchased from ATCC and cultured in McCoy's 5a medium. The breast cancer cell line MDA-MB-468 cultured in Leibovitz's L-15 medium.\n(§5) All cultures were supplemented with 10% FCS(CSL, Australia), penicillin (100 U/ml), streptomycin ([…]), L-glutamine (2 mM) and sodium bicarbonate (1.2 g/L), and cultured at 37° C. in a humidified atmosphere of 5% CO2. All remaining cell lines were purchased from ATCC (Maryland, USA) except where noted.\nas §3"}, "NCI-H460 (Lung)": {"test_system": "NCI-H460 (Lung)", "test": "In vitro cytotoxicity, MTT proliferation assay, NCI-H460", "type": "cell-based, human", "details": "Homo sapiens", "experimental": "as §4, §5, §3"}, "PGE2": {"test_system": "PGE2", "test": "PGE2 in murine macrophages (RAW 264.7) stimulated with LPS", "type": "cell-based, mouse", "details": "RAW 264.7, LPS 50 ng/ml, 16 hrs, dose responsive", "experimental": "The mouse macrophage cell line RAW 264.7 was cultured in DMEM supplemented with FCS, 2 mM glutamine and 50 U/ml penicillin/streptomycin. Subconfluent cells were detached from the flask by gentle scraping and 24-well plates seeded at 5×10^5 cells per well and allowed to adhere for 1 hr. Cells were then treated either test compounds (in 0.025% DMSO) or vehicle alone, and incubated for 1 hr. LPS 50 ng/ml (LPS —Sigma-Aldrich) was then added. After incubation for 16 hrs, culture media was collected and stored at −80° C. for ecosanoid and cytokine measurements using enzyme immunometric assays (PGE2 and TXB2—Cayman Chemical and TNFα—Becton Dickinson)."}},
  "data": [
    {"smiles": "COc1ccc(C23COc4c(ccc(O)c4C)C2C2c4ccc(O)c(C)c4OCC2c2cc(OC)c(OC)cc23)cc1OC", "note": "(stereo not drawn) [Cpd. 2, 4,9-Dihydroxy-14,15-dimethoxy-12a-(3′,4′-dimethoxyphenyl)-3,10-dimethyl-2,11-dioxa-(1H,12H)-6b,6c,12a,16b-tetrahydronaphtho[1,2-g]chrysene]", "values": [
      {"measurement": "synergy with Doxorubicin", "setting": "HT-29 (Colorectal) cells; Doxorubicin first (C)", "result": "no synergy"},
      {"measurement": "synergy with Doxorubicin", "setting": "HT-29 (Colorectal) cells; combination (A) and forward (B) sequences", "result": "strong synergistic cytotoxicity"},
      {"measurement": "synergy with Paclitaxel", "setting": "HT-29 (Colorectal) cells; combination (A)", "result": "strong synergy"},
      {"measurement": "synergy with Gemcitabine", "setting": "HT-29 (Colorectal) cells; forward (A) and reverse (B) sequences, Cpd. 2 5 μM and 10 μM", "result": "synergistic cytotoxicity"},
      {"measurement": "synergy with Paclitaxel", "setting": "HT-29 (Colorectal) cells; forward (B) and reverse (C) 24 hour sequences", "result": "Less significant regions of synergy"},
      {"measurement": "synergy with Gemcitabine", "setting": "HPAC (Pancreatic) cells; Cpd. 2 concentrations greater than 5 μM", "result": "Synergy was not observed"},
      {"measurement": "synergy with Gemcitabine", "setting": "HPAC (Pancreatic) cells; simultaneously (A) or 24 hour sequences (B,C)", "result": "synergistic cytotoxicity"},
      {"measurement": "IC50", "setting": "[1]; Homo sapiens, 120 h, NFF fibroblast, cultured 5 days, MTT", "result": "23.6 ± 6.6", "unit": "µM"},
      {"measurement": "toxicity to normal cells relative to cisplatin and dehydroequol", "setting": "[1]; normal cells (NFF, rabbit kidney)", "result": "less toxic to normal cells than cisplatin, but more toxic than dehydroequol"},
      {"measurement": "IC50", "setting": "MM200 (Melanoma)", "result": 6.5, "unit": "µM"},
      {"measurement": "IC50", "setting": "NCI-H460 (Lung)", "result": "11.3 ± 4.97", "unit": "µM"},
      {"measurement": "effect on PGE2", "setting": "PGE2", "result": "induced"}
    ]}
  ]
}
